Experimental data: patent US6479435B1, “Diaryl ethers and processes for their preparation and herbicidal and desiccant compositions containing them” (ISK Americas Incorporated, priority 1997, dated 2002)

Tests used:
Assay type in all cases: in vivo
[1] = system: upland rice (Oryza sp., var.Tebonnet, RICE); assay: Post-emerge greenhouse test, crop damage rating; conditions: 14 days after application
In short: (§1)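 Scores use a 0 (no damage) to 100 (complete kill) scale, taken 14 days after a foliar spray. Acetone solutions with 0.25% v/v non-ionic surfactant were applied by track sprayer at 187 l/ha and 63-1000 g ai/ha to bottom-watered 2-3 leaf plants.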

[2] = system: field corn (Zea mays L., var. Dekalb 535, CORN); assay: Post-emerge greenhouse test, crop damage rating; conditions: 14 days after application
In short: as §1

[3] = system: common ragweed (Ambrosia artemisiifolia L., AMBEL); assay: Post-emerge greenhouse herbicide test, phytotoxicity rating; conditions: 14 days after application
In short: as §1

[4] = system: upland rice (Oryza sp., var.Tebonnet, RICE); assay: Pre-emerge greenhouse test, crop damage rating; conditions: 14 days after application, rating scale 0-100
In short: (§2)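 Visual 0–100 injury rating (100 = all plants dead) taken 14 days after treatment. Rates of 125–1000 g ai/ha in acetone, 187 l/ha, were sprayed onto soil one day post-sowing; pots were surface-watered to incorporate, then bottom-watered.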

[5] = system: field corn (Zea mays L., var. Dekalb 535, CORN); assay: Pre-emerge greenhouse test, crop damage rating; conditions: 14 days after application, rating scale 0-100
In short: as §2

[6] = system: soybean (Glycine max L., var. Pella 86, SOY); assay: Pre-emerge greenhouse test, crop damage rating; conditions: 14 days after application, rating scale 0-100
In short: as §2

[7] = system: large crabgrass (Digitaria sanguinalis, DIGSA); assay: Pre-emerge greenhouse herbicide test, phytotoxicity rating; conditions: 14 days after application, rating scale 0-100
In short: as §2

[8] = system: sicklepod (Cassia obtusifolia, CASOB); assay: as above; conditions: 14 days after application, rating scale 0-100
In short: as §2

[9] = system: redroot pigweed (Amaranthus retroflexus, AMARE); assay: as above; conditions: 14 days after application, rating scale 0-100
In short: as §2

[10] = system: barnyardgrass (Echinochloa crusgalli, ECHCG); assay: as above; conditions: 14 days after application, rating scale 0-100
In short: as §2

[11] = system: velvetleaf (Abutilon theophrasti, ABUTH); assay: as above; conditions: 14 days after application, rating scale 0-100
In short: as §2

[12] = system: Johnsongrass (Sorghum halepense, SORHA); assay: as above; conditions: 14 days after application, rating scale 0-100
In short: as §2

[13] = system: green foxtail (Setaria viridis, SETVI); assay: as above; conditions: 14 days after application, rating scale 0-100
In short: as §2

[14] = system: ivyleaf morningglory (Ipomoea hederacea, IPOHE); assay: as above; conditions: 14 days after application, rating scale 0-100
In short: as §2

[15] = system: common ragweed (Ambrosia artemisiifolia L., AMBEL); assay: as above; conditions: 14 days after application, rating scale 0-100
In short: as §2

[16] = system: lambsquarters (Chenopodium album, CHEAL); assay: as above; conditions: 14 days after application, rating scale 0-100
In short: as §2

[17] = system: soybean (Glycine max L., var. Pella 86, SOY); assay: Post-emerge greenhouse test, crop damage rating; conditions: 14 days after application
In short: as §1

[18] = system: large crabgrass (Digitaria sanguinalis, DIGSA); assay: Post-emerge greenhouse herbicide test, phytotoxicity rating; conditions: 14 days after application
In short: as §1

[19] = system: redroot pigweed (Amaranthus retroflexus, AMARE); assay: as above; conditions: 14 days after application
In short: as §1

[20] = system: barnyardgrass (Echinochloa crusgalli, ECHCG); assay: as above; conditions: 14 days after application
In short: as §1

[21] = system: velvetleaf (Abutilon theophrasti, ABUTH); assay: as above; conditions: 14 days after application
In short: as §1

[22] = system: Johnsongrass (Sorghum halepense, SORHA); assay: as above; conditions: 14 days after application
In short: as §1

[23] = system: green foxtail (Setaria viridis, SETVI); assay: as above; conditions: 14 days after application
In short: as §1

[24] = system: ivyleaf morningglory (Ipomoea hederacea, IPOHE); assay: as above; conditions: 14 days after application
In short: as §1

[25] = system: lambsquarters (Chenopodium album, CHEAL); assay: as above; conditions: 14 days after application
In short: as §1

N#Cc1ccccc1Oc1cc(-n2c(=O)n3n(c2=S)CCCC3)c(F)cc1Cl [Compound 8-7]
RICE crop damage rating (0-100) ([1]; 63 g al/ha): 10
RICE crop damage rating (0-100) ([1]; 500 g al/ha): 50
CORN crop damage rating (0-100) ([2]; 63 g al/ha): 20
CORN crop damage rating (0-100) ([2]; 500 g al/ha): 0
AMBEL phytotoxicity rating (0-100) ([3]; 63 g al/ha): 60
AMBEL phytotoxicity rating (0-100) ([3]; 500 g al/ha): 80
crop damage rating RICE ([4]; 125 g ai/ha): 20
crop damage rating RICE ([4]; 500 g ai/ha): 50
crop damage rating CORN ([5]; 125 g ai/ha): 0
crop damage rating CORN ([5]; 500 g ai/ha): 10
crop damage rating SOY ([6]; 125 g ai/ha): 0
crop damage rating SOY ([6]; 500 g ai/ha): 20
phytotoxicity rating DIGSA ([7]; 125 g ai/ha): 60
phytotoxicity rating DIGSA ([7]; 500 g ai/ha): 99
phytotoxicity rating CASOB ([8]; 125 g ai/ha): 70
phytotoxicity rating CASOB ([8]; 500 g ai/ha): 100
phytotoxicity rating AMARE ([9]; 125 g ai/ha): 90
phytotoxicity rating AMARE ([9]; 500 g ai/ha): 100
phytotoxicity rating ECHCG ([10]; 125 g ai/ha): 100
phytotoxicity rating ECHCG ([10]; 500 g ai/ha): 100
phytotoxicity rating ABUTH ([11]; 125 g ai/ha): 100
phytotoxicity rating ABUTH ([11]; 500 g ai/ha): 100
phytotoxicity rating SORHA ([12]; 125 g ai/ha): 20
phytotoxicity rating SORHA ([12]; 500 g ai/ha): 70
phytotoxicity rating SETVI ([13]; 125 g ai/ha): 70
phytotoxicity rating SETVI ([13]; 500 g ai/ha): 90
phytotoxicity rating IPOHE ([14]; 125 g ai/ha): 30
phytotoxicity rating IPOHE ([14]; 500 g ai/ha): 100
phytotoxicity rating AMBEL ([15]; 125 g ai/ha): 70
phytotoxicity rating AMBEL ([15]; 500 g ai/ha): 100
phytotoxicity rating CHEAL ([16]; 125 g ai/ha): 100
phytotoxicity rating CHEAL ([16]; 500 g ai/ha): 100
SOY crop damage rating (0-100) ([17]; 63 g al/ha): 20
SOY crop damage rating (0-100) ([17]; 500 g al/ha): 70
DIGSA phytotoxicity rating (0-100) ([18]; 63 g al/ha): 0
DIGSA phytotoxicity rating (0-100) ([18]; 500 g al/ha): 50
AMARE phytotoxicity rating (0-100) ([19]; 63 g al/ha): 100
AMARE phytotoxicity rating (0-100) ([19]; 500 g al/ha): 100
ECHCG phytotoxicity rating (0-100) ([20]; 63 g al/ha): 0
ECHCG phytotoxicity rating (0-100) ([20]; 500 g al/ha): 20
ABUTH phytotoxicity rating (0-100) ([21]; 63 g al/ha): 100
ABUTH phytotoxicity rating (0-100) ([21]; 500 g al/ha): 100
SORHA phytotoxicity rating (0-100) ([22]; 63 g al/ha): 0
SORHA phytotoxicity rating (0-100) ([22]; 500 g al/ha): 70
SETVI phytotoxicity rating (0-100) ([23]; 63 g al/ha): 0
SETVI phytotoxicity rating (0-100) ([23]; 500 g al/ha): 0
IPOHE phytotoxicity rating (0-100) ([24]; 63 g al/ha): 100
IPOHE phytotoxicity rating (0-100) ([24]; 500 g al/ha): 100
CHEAL phytotoxicity rating (0-100) ([25]; 63 g al/ha): 90
CHEAL phytotoxicity rating (0-100) ([25]; 500 g al/ha): 100
